In brackets after ≈: the same amount, converted by molar mass.
Assay: physchem
Details: pH 7.4 buffer

solubility thermodynamic	Compound
33.9 µM (≈ 12.8 µg/mL)	COCCOc1cc2nccc(Nc3ccc(Cl)cc3F)c2cc1OC
15.5 µM (≈ 7.4 µg/mL)	COc1cccc(N(C)c2ccnc(Nc3cc(N4CCOCC4)cc(N4CCOCC4)c3)n2)n1
15.8 µM (≈ 7.64 µg/mL)	Cc1ccc(CO)cc1N(C)c1ccnc(Nc2cc(N3CCOCC3)cc(S(C)(=O)=O)c2)n1
44.7 µM (≈ 19.4 µg/mL)	COc1cc(C2CCNCC2)ccc1Nc1ncc(Cl)c(-c2cnc3ccccn23)n1
16.2 µM (≈ 7.08 µg/mL)	COc1cc(N2CCOCC2)ccc1Nc1ncc(Cl)c(-c2cnc3ccccn23)n1
69.2 µM (≈ 30.2 µg/mL)	COc1ccc(N2CCNCC2)cc1Nc1ncc(Cl)c(-c2cnc3ccccn23)n1
14.5 µM (≈ 6.69 µg/mL)	COc1cc(N2CCN(C(C)=O)CC2)ccc1Nc1ncc(F)c(-c2cnc3ccccn23)n1
32.4 µM (≈ 14 µg/mL)	CCn1ccc(NC(=O)Cc2ccc(Oc3ncnc4cc(OC)c(OC)cc34)cc2)n1
42.7 µM (≈ 22 µg/mL)	COc1ccc(Cl)c(Nc2ncnc3cc(OCCN4CCN(C(C)=O)CC4)cc(OC(C)C)c23)n1
22.4 µM (≈ 11.6 µg/mL)	COc1cnc(Cl)c(Nc2ncnc3cc(OCCN4CCN(C(C)=O)CC4)cc(OC(C)C)c23)n1
47.9 µM (≈ 17.9 µg/mL)	CS(=O)(=O)Cc1cc(N2CCOCC2)nc(-c2cnc3[nH]ccc3c2)n1
38 µM (≈ 20.1 µg/mL)	CN1CCN(CCCOc2cc(OC3CCOCC3)c3c(Nc4ccc(F)c(Cl)c4)ncnc3c2)CC1
51.3 µM (≈ 23.5 µg/mL)	COc1cc2ncnc(Nc3cccc(Cl)c3F)c2cc1CN(C)C1(C(N)=O)CN(C)C1
14.1 µM (≈ 7.16 µg/mL)	C[C@H](COc1cccc2ncnc(Nc3ccc(OCc4ccccn4)c(Cl)c3)c12)N(C)C(=O)CO
22.9 µM (≈ 10.5 µg/mL)	Cc1ccc(Oc2ccc(Nc3ncnc4cccc(O[C@H](C)C(=O)N(C)C)c34)cc2C)cn1
43.7 µM (≈ 20.7 µg/mL)	C[C@@H](Oc1cccc2ncnc(Nc3ccc4c(cnn4Cc4cscn4)c3)c12)C(=O)N(C)C
42.7 µM (≈ 20.2 µg/mL)	C[C@H](Oc1cccc2ncnc(Nc3ccc4c(cnn4Cc4cscn4)c3)c12)C(=O)N(C)C
29.5 µM (≈ 14 µg/mL)	C[C@@H](Oc1cccc2ncnc(Nc3ccc4c(cnn4Cc4nccs4)c3)c12)C(=O)N(C)C
31.6 µM (≈ 15 µg/mL)	C[C@H](Oc1cccc2ncnc(Nc3ccc4c(cnn4Cc4nccs4)c3)c12)C(=O)N(C)C
41.7 µM (≈ 21 µg/mL)	COc1cc2c(Nc3ccc(Br)cc3F)ncnc2cc1OCCCN1CCN(C)CC1
13.2 µM (≈ 5.33 µg/mL)	COc1cc2ncnc(Nc3cccc(Cl)c3F)c2cc1CN(C)CC(N)=O
50.1 µM (≈ 26.5 µg/mL)	COc1ccc(Cl)c(Nc2ncnc3cc(OCCCN4CCN(C(C)=O)CC4)cc(OC(C)C)c23)n1
13.8 µM (≈ 6.84 µg/mL)	OC1CCN(CCOc2n[nH]c3ncnc(Nc4ccc(OCc5ccccn5)c(Cl)c4)c23)CC1
26.9 µM (≈ 12.7 µg/mL)	COc1ccc(Cl)c(Nc2ncnc3cc(OCCN4CCOCC4)cc(OC(C)C)c23)n1
25.7 µM (≈ 12.5 µg/mL)	COc1cc2ncnc(Nc3cccc(Cl)c3F)c2cc1CN(C)C1(C(N)=O)CN(C(C)C)C1
26.3 µM (≈ 12 µg/mL)	Cc1ccc(Oc2ccc(Nc3ncnc4cccc(O[C@@H](C)C(=O)N(C)C)c34)cc2C)cn1
31.6 µM (≈ 15.8 µg/mL)	Cc1ccc(Oc2ccc(Nc3ncnc4cccc(O[C@@H](C)C(=O)N5CCOCC5)c34)cc2C)cn1
34.7 µM (≈ 12.3 µg/mL)	CC(C)n1c2ccc(F)cc2c2cc(NC(=O)N3CCOCC3)ccc21
56.2 µM (≈ 21.3 µg/mL)	Cc1ncc(-c2ccnc(Nc3ccc(N4CCOCC4)cc3)n2)n1C(C)C
15.5 µM (≈ 6.48 µg/mL)	COc1cc2ncnc(Nc3ccc(F)c(Cl)c3)c2cc1CN(C)[C@H](C)C(N)=O

The remaining lines, values behind:

Compound	solubility thermodynamic
O=S(=O)(NCCNC/C=C/c1ccc(Br)cc1)c1cccc2cnccc12	61.7 µM (≈ 27.5 µg/mL)
O=C(NC1C2CC3CC(C2)CC1C3)[C@H]1CCCN1Cc1ccc(Cl)cc1 (some centres not stated)	21.4 µM (≈ 7.98 µg/mL)
O=C(O)c1csc(NC(=O)C(CC2CCCC2)c2ccc(Cl)c(Cl)c2)n1 (configuration not stated)	34.7 µM (≈ 14.3 µg/mL)
CC(C)Oc1cccc(NC(=O)c2ccc3cc(C(=N)N)ccc3c2)c1	64.6 µM (≈ 22.4 µg/mL)
COc1cccc(C(=O)N2CCC(C(=O)c3ccc(F)cc3)CC2)c1	58.9 µM (≈ 20.1 µg/mL)
O=C(c1ccc(F)cc1)C1CCN(C(=O)c2ccccc2Cl)CC1	28.8 µM (≈ 9.96 µg/mL)
Cc1ccc(C(=O)N2CCC(C(=O)c3ccc(F)cc3)CC2)cc1	20.4 µM (≈ 6.64 µg/mL)
O=C(c1ccc(F)cc1)C1CCN(C(=O)c2ccc(F)cc2Cl)CC1	14.5 µM (≈ 5.27 µg/mL)
O=C(NCc1ccccc1)c1cccn(Cc2ccccc2)c1=O	26.3 µM (≈ 8.37 µg/mL)
Cc1cc2oc(=O)cc(Cn3ccnc3)c2cc1C	33.9 µM (≈ 8.62 µg/mL)
COc1ccc2oc(=O)c(C(C)=O)cc2c1	49 µM (≈ 10.7 µg/mL)
c1ccc(-c2nnc(-c3ccccc3)o2)cc1	15.8 µM (≈ 3.51 µg/mL)
Clc1ccc(-c2cn3cccnc3n2)cc1	20 µM (≈ 4.59 µg/mL)
O=C(c1ccc(Cl)cc1)C1CCN(C(=O)c2ccccc2)CC1	29.5 µM (≈ 9.67 µg/mL)
O=C(c1ccccc1)C1CCN(C(=O)c2c(F)cccc2F)CC1	13.2 µM (≈ 4.35 µg/mL)
O=C(c1nnsc1S(=O)(=O)c1ccc(Cl)cc1)N1CCOCC1	17 µM (≈ 6.36 µg/mL)
CCC(=O)Nc1c(C#N)c2nc3ccccc3nc2n1-c1ccccc1C	13.5 µM (≈ 4.8 µg/mL)
CN(C)C(=O)c1nnsc1Sc1ccc(Cl)cc1	31.6 µM (≈ 9.47 µg/mL)
O=C(c1ccccc1)C1CCN(C(=O)c2ccc(Cl)cc2)CC1	28.8 µM (≈ 9.44 µg/mL)
Cc1ccc2nc(-c3ccccc3)cc(O)c2c1	22.9 µM (≈ 5.39 µg/mL)
CC(C)(C)OC(=O)N1CCC[C@H]1C(=O)Nc1ccc(Br)cc1	23.4 µM (≈ 8.64 µg/mL)
Cc1cccc(C)c1NC(=O)N1CCC(C(=O)c2ccc(F)cc2)CC1	18.6 µM (≈ 6.59 µg/mL)
CC1(C)C(=O)N(c2ccc(SC(F)(F)F)cc2)C(=O)N1Cc1ccncc1	43.7 µM (≈ 17.3 µg/mL)

Compound	solubility thermodynamic
Cc1ccccc1N(C)c1ccnc(Nc2cc(N3CCOCC3)cc(N3CCOCC3)c2)n1	30.9 µM (≈ 14.2 µg/mL)
Cc1cc(F)ccc1CCC1CCN(S(=O)(=O)CC2(N(O)C=O)CCOCC2)CC1	13.8 µM (≈ 6.11 µg/mL)
COc1cc(Oc2ccc(C(=O)NCc3ccncc3)cc2)ccc1[N+](=O)[O-]	21.4 µM (≈ 8.12 µg/mL)
CN(C(=O)Cc1ccc(Br)cc1)C1CCN(CCC(c2ccccc2)c2ccccc2)CC1	21.9 µM (≈ 11.1 µg/mL)
O=C(Nc1cccc(O)c1)c1ccc(OCCCN2CCCC2)cc1OC1CCCC1	58.9 µM (≈ 25 µg/mL)
O=C(Nc1ccccc1)c1ccc(OCCCN2CCCC2)cc1OCc1ccccc1	61.7 µM (≈ 26.6 µg/mL)
N#Cc1ccccc1COc1cc(OCCCN2CCCC2)ccc1C(=O)Nc1ccccc1	34.7 µM (≈ 15.8 µg/mL)
CC(C)Oc1cc(OCc2ccccc2F)cc(C(=O)Nc2ccc(C(=O)O)cn2)c1	61.7 µM (≈ 26.2 µg/mL)
COc1cccc(NC(=O)Cn2cc(Oc3ccnc4cc(OC)c(OC)cc34)cn2)c1	66.1 µM (≈ 28.7 µg/mL)
CCn1cc(NC(=O)Cc2ccc(Oc3ncnc4cc(OC)c(OC)cc34)cc2)cn1	24 µM (≈ 10.4 µg/mL)
CC(C)Oc1cc(OCC2CCCC2)cc(C(=O)Nc2ccc(C(=O)O)cn2)c1	45.7 µM (≈ 18.2 µg/mL)
CCN(C(=O)Cc1ccc(S(C)(=O)=O)cc1)C1CCN(CC[C@@H](c2ccccc2)C2CCN(S(=O)(=O)C(F)(F)F)CC2)CC1	56.2 µM (≈ 37 µg/mL)
O=c1cc(-c2ccccc2)[nH]c2c(Cl)cccc12	30.9 µM (≈ 7.9 µg/mL)
CN(C(=O)Cc1ccc(-n2cnnn2)cc1)[C@@H]1CCN(Cc2ccc(C(F)(F)F)cc2)C[C@@H]1F	16.2 µM (≈ 7.72 µg/mL)
CCn1cc(NC(=O)Cc2ncc(Oc3ccnc4cc(OC)ccc34)cc2OC)cn1	17.4 µM (≈ 7.54 µg/mL)
COc1ccc2c(Oc3cnc(CC(=O)Nc4cn(C)nc4C)c(OC)c3)ccnc2c1	15.1 µM (≈ 6.55 µg/mL)
CCn1cc(NC(=O)Cc2ccc(Oc3ccnc4cc(OC)c(OC)cc34)cn2)cn1	15.8 µM (≈ 6.85 µg/mL)
NC1(c2ccc(-c3nn4cccc4cc3-c3ccccc3)cc2)CCC1	26.3 µM (≈ 8.93 µg/mL)
COc1ccc(C(=O)Nc2ccccc2)cc1	18.2 µM (≈ 4.14 µg/mL)
CC(C)C(NC(=O)c1cnoc1C(C)(C)C)C(=O)c1ccc(C#N)cc1 (configuration not stated)	20 µM (≈ 7.07 µg/mL)
NC(=O)Nc1sc(-c2ccc(Cl)c(Cl)c2)cc1C(=O)N[C@H]1CCCNC1	66.1 µM (≈ 27.3 µg/mL)
CC(C)(C)OC(=O)N1CCC(c2ncc(OCc3ccc(S(C)(=O)=O)cc3)cn2)CC1	61.7 µM (≈ 27.6 µg/mL)
C[C@@H](O)C(=O)N1CC=C(c2c(F)cc(N3C[C@H](COc4ccon4)OC3=O)cc2F)CC1	25.1 µM (≈ 11.3 µg/mL)

Compound	solubility thermodynamic
COc1ccc(NCc2ccc(C(=O)Nc3ccccc3N)cc2)cc1OC	57.5 µM (≈ 21.7 µg/mL)
c1ccc(-c2nc[nH]c2-c2ccccc2)cc1	22.9 µM (≈ 5.04 µg/mL)
CN1CCC(c2cc(N3CCOCC3)nc(-c3cccc4[nH]ccc34)n2)(S(C)(=O)=O)CC1	21.4 µM (≈ 9.75 µg/mL)
NC(=O)Nc1sc(-c2ccc(F)cc2)cc1C(N)=O	67.6 µM (≈ 18.9 µg/mL)
N#Cc1cccnc1-c1ccc(C(=O)Nc2ccccc2N)cc1	35.5 µM (≈ 11.2 µg/mL)
Oc1cc(-c2ccccc2)nc2c(O)cccc12	41.7 µM (≈ 9.89 µg/mL)
COc1cc(-c2nn[nH]n2)ccc1Cn1ncc2ccc(NC(=O)OC3CCCC3)cc21	43.7 µM (≈ 18.9 µg/mL)
OC1(C#Cc2ccc(-c3ccccc3)cc2)CN2CCC1CC2 (configuration not stated)	14.8 µM (≈ 4.49 µg/mL)
O=C(O)c1cc2c(Cl)cccc2n1Cc1ccc(Cl)c(Cl)c1	66.1 µM (≈ 23.4 µg/mL)
CC(C)Oc1cc(OCCc2ccccc2)cc(C(=O)Nc2ccc(C(=O)O)cn2)c1	28.8 µM (≈ 12.1 µg/mL)
O=c1[nH]c2cc(Cl)c([N+](=O)[O-])cc2c(O)c1-c1ccccc1	29.5 µM (≈ 9.34 µg/mL)
Cc1cc(C)cc(-c2[nH]c3sc(C(C)(C)C(=O)N4C5CCC4CC5)cc3c2CCN2CCC(C(=O)N3CCOCC3)C(C)C2)c1 (configuration not stated)	33.1 µM (≈ 20.9 µg/mL)
Nc1ccccc1NC(=O)c1ccc(N2CCN(Cc3ccccc3)CC2)cc1	28.2 µM (≈ 10.9 µg/mL)
COc1ccc(-c2cc(N)c(C(N)=O)s2)cc1	30.9 µM (≈ 7.67 µg/mL)
CS(=O)(=O)c1cccc(Nc2nccc(Nc3c(Cl)ccc4c3OCO4)n2)c1	30.2 µM (≈ 12.6 µg/mL)
COCCNS(=O)(=O)c1ccc(Nc2nccc(-c3cnc(C)n3C3CCCC3)n2)cc1	53.7 µM (≈ 24.5 µg/mL)
COCCN(C)S(=O)(=O)c1ccc(Nc2nccc(-c3cnc(C)n3C)n2)cc1	56.2 µM (≈ 23.4 µg/mL)
CC(C)c1cc(C(=O)N[C@@H](Cc2cccc(Cl)c2)C(=O)NCC#N)n(C)n1	47.9 µM (≈ 18.6 µg/mL)
N=C(N)c1ccc2cc(C(=O)Nc3ccc4c(c3)OCO4)ccc2c1	44.7 µM (≈ 14.9 µg/mL)
CC(C)OC(=O)c1cn(Cc2c(F)cccc2F)c2sc(-c3ccc(NC(=O)C(C)C)cc3)c(CN(C)Cc3ccccc3)c2c1=O	38 µM (≈ 25 µg/mL)
CN(C)CCNS(=O)(=O)c1ccc(Nc2nccc(-c3cnc4ccccn34)n2)cc1	30.9 µM (≈ 13.5 µg/mL)

Source: ChEMBL document CHEMBL3301361, “Experimental in vitro DMPK and physicochemical data on a set of publicly disclosed compounds”
